Assay results from ChEMBL document CHEMBL1149679 (Bioorg Med Chem Lett, 2007).

Each compound was assayed against T1, Polyunsaturated fatty acid lipoxygenase ALOX15 (Oryctolagus cuniculus, UniProt P12530) (assay: Inhibition of rabbit 15-lipoxygenase in presence of linoleic acid).
T1 sequence (P12530 whole entry): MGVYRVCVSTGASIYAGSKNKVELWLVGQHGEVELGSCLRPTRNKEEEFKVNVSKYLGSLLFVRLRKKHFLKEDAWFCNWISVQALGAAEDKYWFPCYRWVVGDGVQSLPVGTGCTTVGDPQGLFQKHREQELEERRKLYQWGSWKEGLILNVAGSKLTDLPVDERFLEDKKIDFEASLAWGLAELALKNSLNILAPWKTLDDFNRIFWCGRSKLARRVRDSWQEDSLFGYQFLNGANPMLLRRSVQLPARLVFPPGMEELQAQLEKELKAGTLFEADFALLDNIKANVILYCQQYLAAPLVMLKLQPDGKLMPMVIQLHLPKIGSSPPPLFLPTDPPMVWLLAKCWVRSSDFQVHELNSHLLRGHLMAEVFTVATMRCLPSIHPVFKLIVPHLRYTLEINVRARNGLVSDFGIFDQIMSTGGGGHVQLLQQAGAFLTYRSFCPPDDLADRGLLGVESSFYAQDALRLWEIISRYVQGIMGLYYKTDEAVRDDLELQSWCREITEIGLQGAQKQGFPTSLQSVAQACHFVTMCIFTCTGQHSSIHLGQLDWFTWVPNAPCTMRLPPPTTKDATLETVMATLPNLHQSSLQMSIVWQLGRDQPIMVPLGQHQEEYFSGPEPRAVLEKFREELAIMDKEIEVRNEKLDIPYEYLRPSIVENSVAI

IC50 [nM] | SMILES
83 | COc1ccc(-c2[nH]c(-c3ccccc3)nc2CCNS(=O)(=O)N[C@@H]2CCN(Cc3ccccc3)C2)cc1
82 | CCCCCc1ccc(S(=O)(=O)NCCc2nc(-c3ccccc3)[nH]c2-c2cccc(OC)c2)cc1
87 | CCCCCc1ccc(S(=O)(=O)NCCc2nc(-c3ccncc3)[nH]c2-c2ccc(OC)cc2)cc1
> 10000 | CCCCCc1ccc(S(=O)(=O)NCCc2[nH]cnc2-c2ccc(OC)cc2)cc1
2810 | CCCCCc1ccc(S(=O)(=O)NCCc2nc(-c3cnccn3)[nH]c2-c2ccc(OC)cc2)cc1
140 | CCCCCc1ccc(S(=O)(=O)NCCCc2nc(-c3ccccc3)[nH]c2-c2ccc(OC)cc2)cc1
> 3000 | CCCCCc1ccc(S(=O)(=O)NCCc2nc(-c3ccc(C)cc3)[nH]c2-c2ccc(OC)cc2)cc1
55 | COc1ccc(-c2[nH]c(-c3ccccc3)nc2CCNS(=O)(=O)N2CCN(c3ccc(Cl)c(Cl)c3)CC2)cc1
14 | CCCCCc1ccc(S(=O)(=O)NCCc2nc(-c3ccccc3)[nH]c2-c2ccc(OC)cc2)cc1
36 | COc1ccc(-c2[nH]c(-c3cccs3)nc2CCNS(=O)(=O)N2CCN(c3ccc(Cl)c(Cl)c3)CC2)cc1
21 | CCCCCc1ccc(S(=O)(=O)NCCc2nc(-c3ccc(Cl)cc3)[nH]c2-c2ccc(OC)cc2)cc1
45 | COc1ccc(-c2[nH]c(-c3cccs3)nc2CCNS(=O)(=O)N2CCN(c3ccccc3Cl)CC2)cc1
> 10000 | CCCCCc1ccc(S(=O)(=O)NCCc2nc(-c3ccc(OC)cc3)[nH]c2-c2ccc(OC)cc2)cc1
72 | CCCCCc1ccc(S(=O)(=O)NCCc2nc(-c3ccccc3)[nH]c2-c2ccc(C(F)(F)F)cc2)cc1
720 | CCCCCc1ccc(S(=O)(=O)NCCc2nc(-c3csc(C)n3)[nH]c2-c2ccc(OC)cc2)cc1
560 | CCCCCc1ccc(S(=O)(=O)NCCc2nc(-c3cccnc3)[nH]c2-c2ccc(OC)cc2)cc1
31 | COc1ccc(-c2[nH]c(-c3ccccc3)nc2CCNS(=O)(=O)N(C)[C@@H]2CCN(Cc3ccccc3)C2)cc1

What follows are compounds tested against T2, Polyunsaturated fatty acid 5-lipoxygenase (Homo sapiens) (UniProt P09917) (assay: Inhibition of human 5-lipoxygenase at 3 uM).
T2 sequence (whole entry): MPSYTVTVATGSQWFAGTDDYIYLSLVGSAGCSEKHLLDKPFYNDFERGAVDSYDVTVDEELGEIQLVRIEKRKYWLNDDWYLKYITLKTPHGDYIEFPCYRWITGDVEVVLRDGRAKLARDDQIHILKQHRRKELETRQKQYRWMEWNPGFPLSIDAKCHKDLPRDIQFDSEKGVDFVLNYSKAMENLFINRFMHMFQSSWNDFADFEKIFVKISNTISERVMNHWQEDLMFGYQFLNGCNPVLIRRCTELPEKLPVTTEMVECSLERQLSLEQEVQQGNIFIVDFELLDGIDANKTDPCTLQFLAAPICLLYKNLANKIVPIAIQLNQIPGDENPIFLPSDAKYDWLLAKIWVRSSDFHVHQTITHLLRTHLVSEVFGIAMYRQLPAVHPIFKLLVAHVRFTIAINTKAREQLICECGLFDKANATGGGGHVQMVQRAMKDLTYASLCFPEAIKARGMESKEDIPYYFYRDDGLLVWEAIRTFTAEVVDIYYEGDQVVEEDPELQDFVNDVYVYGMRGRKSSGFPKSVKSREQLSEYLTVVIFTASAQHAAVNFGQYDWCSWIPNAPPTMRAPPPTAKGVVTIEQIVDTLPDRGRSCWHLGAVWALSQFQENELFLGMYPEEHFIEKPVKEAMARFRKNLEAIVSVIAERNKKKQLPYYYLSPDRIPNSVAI

inhibition [%] | SMILES
15 | CCCCCc1ccc(S(=O)(=O)NCCc2nc(-c3ccccc3)[nH]c2-c2ccc(OC)cc2)cc1

Each compound was assayed against T3, Polyunsaturated fatty acid lipoxygenase ALOX12 (Homo sapiens) (UniProt P18054) (assay: Inhibition of platelet 12-lipoxygenase at 3 uM).
T3 sequence (whole entry): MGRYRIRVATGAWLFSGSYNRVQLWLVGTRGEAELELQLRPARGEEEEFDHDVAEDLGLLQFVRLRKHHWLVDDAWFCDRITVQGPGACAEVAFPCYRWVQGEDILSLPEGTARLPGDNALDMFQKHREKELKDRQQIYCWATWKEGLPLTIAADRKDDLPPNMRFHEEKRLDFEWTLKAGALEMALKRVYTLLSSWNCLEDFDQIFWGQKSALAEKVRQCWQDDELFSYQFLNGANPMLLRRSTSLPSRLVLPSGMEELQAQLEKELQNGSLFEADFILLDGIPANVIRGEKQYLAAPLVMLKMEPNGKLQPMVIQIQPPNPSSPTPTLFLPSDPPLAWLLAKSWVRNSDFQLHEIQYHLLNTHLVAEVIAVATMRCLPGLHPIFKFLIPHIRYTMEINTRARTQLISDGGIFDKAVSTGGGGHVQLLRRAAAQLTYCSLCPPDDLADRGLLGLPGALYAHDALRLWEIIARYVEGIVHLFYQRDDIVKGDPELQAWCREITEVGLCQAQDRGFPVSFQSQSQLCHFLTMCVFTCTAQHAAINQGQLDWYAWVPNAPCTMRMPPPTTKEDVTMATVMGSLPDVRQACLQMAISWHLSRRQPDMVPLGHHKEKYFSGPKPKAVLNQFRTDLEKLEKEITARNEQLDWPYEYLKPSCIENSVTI

inhibition [%] | SMILES
45 | CCCCCc1ccc(S(=O)(=O)NCCc2nc(-c3ccccc3)[nH]c2-c2ccc(OC)cc2)cc1

Each compound was assayed against T4, Polyunsaturated fatty acid lipoxygenase ALOX15B (Homo sapiens) (UniProt O15296) (assay: Inhibition of human recombinant 15-lipoxygenase over-expressed in CHO cells at 10 uM).
T4 sequence (whole entry): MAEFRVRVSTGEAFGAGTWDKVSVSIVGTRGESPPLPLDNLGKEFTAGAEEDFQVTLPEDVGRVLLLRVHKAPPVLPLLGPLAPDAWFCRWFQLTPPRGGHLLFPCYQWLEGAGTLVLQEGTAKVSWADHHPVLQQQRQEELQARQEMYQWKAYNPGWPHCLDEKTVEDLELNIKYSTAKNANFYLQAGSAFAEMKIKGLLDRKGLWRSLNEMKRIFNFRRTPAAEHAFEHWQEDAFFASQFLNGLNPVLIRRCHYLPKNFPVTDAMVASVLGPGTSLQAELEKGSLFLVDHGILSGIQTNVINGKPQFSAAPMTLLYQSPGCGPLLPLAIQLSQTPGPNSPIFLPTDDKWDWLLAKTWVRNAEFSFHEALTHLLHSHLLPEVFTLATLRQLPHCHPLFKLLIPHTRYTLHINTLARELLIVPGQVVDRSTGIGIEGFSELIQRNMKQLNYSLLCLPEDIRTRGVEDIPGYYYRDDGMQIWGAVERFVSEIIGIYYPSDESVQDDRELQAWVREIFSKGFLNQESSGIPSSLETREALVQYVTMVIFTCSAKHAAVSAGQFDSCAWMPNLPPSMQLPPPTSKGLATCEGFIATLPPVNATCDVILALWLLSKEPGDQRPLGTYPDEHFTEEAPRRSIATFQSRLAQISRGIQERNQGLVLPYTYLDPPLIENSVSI
Assay type: cell-based

inhibition [%] | SMILES
83 | CCCCCc1ccc(S(=O)(=O)NCCc2nc(-c3ccccc3)[nH]c2-c2ccc(OC)cc2)cc1
84 | COc1ccc(-c2[nH]c(-c3cccs3)nc2CCNS(=O)(=O)N2CCN(c3ccc(Cl)c(Cl)c3)CC2)cc1
96 | CCN([C@@H]1CCN(C(C)c2ccc(F)cc2)C1)S(=O)(=O)NCCc1nc(-c2cccs2)[nH]c1-c1ccc(OC)cc1 (some centres undefined)
70 | COc1ccc(-c2[nH]c(-c3ccccc3)nc2CCNS(=O)(=O)N(C)[C@@H]2CCN(Cc3ccccc3)C2)cc1

The compounds below were run against T1, Polyunsaturated fatty acid lipoxygenase ALOX15 (assay: Inhibition of rabbit 15-lipoxygenase in presence of arachidonic acid).

IC50 [nM] | SMILES
719 | COc1ccc(-c2[nH]c(-c3ccccc3)nc2CCNS(=O)(=O)N[C@@H]2CCN(Cc3ccccc3)C2)cc1
531 | CCCCCc1ccc(S(=O)(=O)NCCc2nc(-c3ccccc3)[nH]c2-c2cccc(OC)c2)cc1
3210 | CCCCCc1ccc(S(=O)(=O)NCCc2nc(-c3ccncc3)[nH]c2-c2ccc(OC)cc2)cc1
914 | CCCCCc1ccc(S(=O)(=O)NCCCc2nc(-c3ccccc3)[nH]c2-c2ccc(OC)cc2)cc1
378 | COc1ccc(-c2[nH]c(-c3ccccc3)nc2CCNS(=O)(=O)N2CCN(c3ccc(Cl)c(Cl)c3)CC2)cc1
50 | CCCCCc1ccc(S(=O)(=O)NCCc2nc(-c3ccccc3)[nH]c2-c2ccc(OC)cc2)cc1
133 | COc1ccc(-c2[nH]c(-c3cccs3)nc2CCNS(=O)(=O)N2CCN(c3ccc(Cl)c(Cl)c3)CC2)cc1
1100 | CCCCCc1ccc(S(=O)(=O)NCCc2nc(-c3ccc(Cl)cc3)[nH]c2-c2ccc(OC)cc2)cc1
132 | COc1ccc(-c2[nH]c(-c3cccs3)nc2CCNS(=O)(=O)N2CCN(c3ccccc3Cl)CC2)cc1
372 | CCCCCc1ccc(S(=O)(=O)NCCc2nc(-c3ccccc3)[nH]c2-c2ccc(C(F)(F)F)cc2)cc1
186 | COc1ccc(-c2[nH]c(-c3ccccc3)nc2CCNS(=O)(=O)N(C)[C@@H]2CCN(Cc3ccccc3)C2)cc1
